What was measured:
[1] = target: BCR fusion to kinase domain of MerTK (Ba/F3-MerTK) (Homo sapiens, UniProt Q12866); experiment: In Cell TAM Kinase Assay Using BaF3 Cellular System; assay type: cell-based, murine; conditions: Ba/F3 BCR-kinase fusion proliferation, 72 hours, Cell Titer Glo; kinase not given; read-out: IC50
In short: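 Ba/F3 murine pro-B cells expressing BCR–MerTK kinase-domain fusion (IL-3 independent), seeded at 1,000 cells/well onto compound and grown 72 h. Viability read by CellTiter-Glo 2.0 luminescence after 30 min at room temperature.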

[2] = target: human MER (528-end) (Homo sapiens (Human), UniProt Q12866); experiment: HTRF Kinase Activity Biochemical Assay (KinEASE-TK); conditions: 10 uM ATP
In short: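 Recombinant human MER (528-end) phosphorylated biotin-TK peptide substrate, 1 h at room temperature. Reaction stopped with detection buffer containing 0.375 nM Eu3+-cryptate anti-TK antibody and 0.062 uM streptavidin-XL665, 1 h further. Activity taken as HTRF ratio 665/620 nm ×10,000, 340 nm excitation.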

Sequence of human MER (528-end) (Q12866 528-999 limits assumed): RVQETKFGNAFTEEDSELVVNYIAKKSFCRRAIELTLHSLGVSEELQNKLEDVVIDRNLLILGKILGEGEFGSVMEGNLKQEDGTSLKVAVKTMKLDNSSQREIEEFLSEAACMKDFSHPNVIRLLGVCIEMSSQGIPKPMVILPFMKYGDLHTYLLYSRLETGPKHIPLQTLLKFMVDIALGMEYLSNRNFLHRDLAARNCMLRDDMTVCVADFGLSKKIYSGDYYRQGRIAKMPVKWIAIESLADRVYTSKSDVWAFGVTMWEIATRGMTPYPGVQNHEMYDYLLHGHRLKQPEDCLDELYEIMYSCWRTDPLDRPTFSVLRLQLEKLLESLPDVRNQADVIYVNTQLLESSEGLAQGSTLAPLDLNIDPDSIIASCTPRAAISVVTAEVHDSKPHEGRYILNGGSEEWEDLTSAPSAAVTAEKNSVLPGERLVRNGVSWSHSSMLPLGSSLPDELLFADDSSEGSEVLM
Sequence of BCR fusion to kinase domain of MerTK (Ba/F3-MerTK) (Q12866 21-999 limits assumed, change not shown): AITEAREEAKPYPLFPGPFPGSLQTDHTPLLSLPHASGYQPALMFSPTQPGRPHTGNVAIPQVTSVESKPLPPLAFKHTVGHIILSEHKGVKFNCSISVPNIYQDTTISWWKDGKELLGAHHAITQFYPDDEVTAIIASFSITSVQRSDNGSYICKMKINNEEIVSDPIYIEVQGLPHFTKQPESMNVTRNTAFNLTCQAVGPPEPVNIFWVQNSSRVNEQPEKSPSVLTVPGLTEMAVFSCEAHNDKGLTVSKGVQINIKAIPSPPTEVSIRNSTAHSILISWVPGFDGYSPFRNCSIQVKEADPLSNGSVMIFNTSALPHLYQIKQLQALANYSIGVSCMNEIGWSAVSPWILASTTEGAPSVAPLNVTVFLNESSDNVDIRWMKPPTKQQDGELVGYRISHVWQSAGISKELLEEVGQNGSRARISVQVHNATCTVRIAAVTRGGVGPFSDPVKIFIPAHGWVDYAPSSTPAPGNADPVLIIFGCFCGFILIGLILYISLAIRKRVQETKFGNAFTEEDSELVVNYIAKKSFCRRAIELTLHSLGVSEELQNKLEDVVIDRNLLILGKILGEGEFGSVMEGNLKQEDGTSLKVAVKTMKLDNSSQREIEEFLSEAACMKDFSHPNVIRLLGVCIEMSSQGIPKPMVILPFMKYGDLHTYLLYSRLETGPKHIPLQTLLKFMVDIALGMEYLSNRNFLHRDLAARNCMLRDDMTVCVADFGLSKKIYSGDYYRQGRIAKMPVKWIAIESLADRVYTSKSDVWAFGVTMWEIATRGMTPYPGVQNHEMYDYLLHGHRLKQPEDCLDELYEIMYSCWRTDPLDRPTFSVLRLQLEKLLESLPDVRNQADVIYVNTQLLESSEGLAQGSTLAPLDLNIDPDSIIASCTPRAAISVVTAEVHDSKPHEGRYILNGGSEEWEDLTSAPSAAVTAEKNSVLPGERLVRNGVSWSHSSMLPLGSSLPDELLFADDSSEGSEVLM

| SMILES | IC50 [1] | IC50 [2] |
| --- | --- | --- |
| Cn1cc(-c2cnc(N)c(C(=O)N[C@@H]3CCN(C(=O)c4ccc(-c5ccc6c(ccn6C)c5)cc4)C3)c2)cn1 [Example 756, (R)-2-amino-N-(1-(4-(1-methyl-1H-indol-5-yl)benzoyl)pyrrolidin-3-yl)-5-(1-methyl-1H-pyrazol-4-yl)nicotinamide] | > 1000 nM | 100 to 1000 nM |
| Cn1cc(-c2cnc(N)c(C(=O)N[C@@H]3CCN(C(=O)c4ccc(-c5ccc6c(cnn6C)c5)cc4)C3)c2)cn1 [Example 757, (R)-2-amino-N-(1-(4-(1-methyl-1H-indazol-5-yl)benzoyl)pyrrolidin-3-yl)-5-(1-methyl-1H-pyrazol-4-yl)nicotinamide] | > 1000 nM | 100 to 1000 nM |
| CN(C)CCOc1ccc2cc(C(=O)N3CC[C@@H](NC(=O)c4cc(-c5cnn(C)c5)cnc4N)C3)ccc2c1 [Example 762] | > 1000 nM | 100 to 1000 nM |
| Cn1cc(-c2cnc(N)c(C(=O)N[C@@H]3CCN(C(=O)c4ccc5cc(OCCN6CCCC6)ccc5c4)C3)c2)cn1 [Example 765, (R)-2-amino-5-(1-methyl-1H-pyrazol-4-yl)-N-(1-(6-(2-(pyrrolidin-1-yl)ethoxy)-2-naphthoyl)pyrrolidin-3-yl)nicotinamide] | > 1000 nM | 100 to 1000 nM |
| Nc1ncc(-c2ccc(F)nc2)cc1C(=O)N[C@@H]1CCN(C(=O)c2ccc(-c3ccc(F)cc3Cl)cc2)C1 [Example 774, (R)-6-amino-N-(1-(2′-chloro-4′-fluoro-[1,1′-biphenyl]-4-carbonyl)pyrrolidin-3-yl)-6^1-fluoro-[3,3′-bipyridine]-5-carboxamide] | 100 to 500 nM | 10 to 100 nM |
| Nc1ncc(-c2ccccc2O)cc1C(=O)N[C@@H]1CCN(C(=O)c2ccc(-c3ccc(F)cc3Cl)cc2)C1 [Example 778, (R)-2-amino-N-(1-(2′-chloro-4′-fluoro-[1,1′-biphenyl]-4-carbonyl)pyrrolidin-3-yl)-5-(2-hydroxyphenyl)nicotinamide] | > 1000 nM | 100 to 1000 nM |
| Nc1ccccc1-c1cnc(N)c(C(=O)N[C@@H]2CCN(C(=O)c3ccc(-c4ccc(F)cc4Cl)cc3)C2)n1 [Example 779, (R)-3-amino-6-(2-aminophenyl)-N-(1-(2′-chloro-4′-fluoro-[1,1′-biphenyl]-4-carbonyl)pyrrolidin-3-yl)pyrazine-2-carboxamide] | > 1000 nM | 100 to 1000 nM |
| CN(C)C(=O)c1ccc(Oc2ccc(-c3ccc(C(=O)N4CC[C@@H](NC(=O)c5cc(-c6cnn(C)c6)cnc5N)C4)cc3)cc2)cc1 [Example 787, (R)-2-amino-N-(1-(4′-(4-(dimethylcarbamoyl)phenoxy)-[1,1′-biphenyl]-4-carbonyl)pyrrolidin-3-yl)-5-(1-methyl-1H-pyrazol-4-yl)nicotinamide] | > 1000 nM | 10 to 100 nM |
| Cn1cc(-c2cnc(N)c(C(=O)N[C@@H]3CCN(C(=O)c4ccc(-c5ccc(Oc6ccc(C(N)=O)cc6)cc5)cc4)C3)c2)cn1 [Example 788, (R)-2-amino-N-(1-(4′-(4-carbamoylphenoxy)-[1,1′-biphenyl]-4-carbonyl)pyrrolidin-3-yl)-5-(1-methyl-1H-pyrazol-4-yl)nicotinamide] | > 1000 nM | 10 to 100 nM |
| Cn1cc(-c2cnc(N)c(C(=O)N[C@@H]3CCN(C(=O)c4ccc(-c5ccc(Oc6cccnc6)cc5)cc4)C3)c2)cn1 [Example 802, (R)-2-amino-5-(1-methyl-1H-pyrazol-4-yl)-N-(1-(4′-(pyridin-3-yloxy)-[1,1′-biphenyl]-4-carbonyl)pyrrolidin-3-yl)nicotinamide] | > 1000 nM | 100 to 1000 nM |
| CN(c1ccc(-c2ccc(C(=O)N3CC[C@@H](NC(=O)c4cc(-c5cnn(C)c5)cnc4N)C3)cc2)cc1)c1ccc([N+](=O)[O-])cc1F [Example 804, (R)-2-amino-N-(1-(4′-((2-fluoro-4-nitrophenyl)(methyl)amino)-[1,1′-biphenyl]-4-carbonyl)pyrrolidin-3-yl)-5-(1-methyl-1H-pyrazol-4-yl)nicotinamide] | > 1000 nM | 100 to 1000 nM |
| Cn1cc(-c2cnc(N)c(C(=O)N[C@@H]3CCN(C(=O)c4ccc(-c5ccc(Oc6ccc(O)cc6)c(Cl)c5)cc4)C3)c2)cn1 [Example 808, (R)-2-amino-N-(1-(3′-chloro-4′-(4-hydroxyphenoxy)-[1,1′-biphenyl]-4-carbonyl)pyrrolidin-3-yl)-5-(1-methyl-1H-pyrazol-4-yl)nicotinamide] | 100 to 500 nM | 10 to 100 nM |
| CN1CCC(Oc2ccc(-c3ccc(C(=O)N4CC[C@@H](NC(=O)c5cc(-c6cnn(C)c6)cnc5N)C4)cc3)cc2)CC1 [Example 809, (R)-2-amino-5-(1-methyl-1H-pyrazol-4-yl)-N-(1-(4′-((1-methylpiperidin-4-yl)oxy)-[1,1′-biphenyl]-4-carbonyl)pyrrolidin-3-yl)nicotinamide] | > 1000 nM | 10 to 100 nM |

Now from value to compound:

| IC50 [1] | IC50 [2] | SMILES |
| --- | --- | --- |
| > 1000 nM | 100 to 1000 nM | CN1CCCC1CCOc1ccc2cc(C(=O)N3CC[C@@H](NC(=O)c4cc(-c5cnn(C)c5)cnc4N)C3)ccc2c1 (stereo partly shown) [Example 764] |
| > 1000 nM | 100 to 1000 nM | CN(C)CCCOc1ccc2cc(C(=O)N3CC[C@@H](NC(=O)c4cc(-c5cnn(C)c5)cnc4N)C3)ccc2c1 [Example 766, (R)-2-amino-N-(1-(6-(3-(dimethylamino)propoxy)-2-naphthoyl)pyrrolidin-3-yl)-5-(1-methyl-1H-pyrazol-4-yl)nicotinamide] |
| > 1000 nM | 100 to 1000 nM | CN1CCC(COc2ccc3cc(C(=O)N4CC[C@@H](NC(=O)c5cc(-c6cnn(C)c6)cnc5N)C4)ccc3c2)CC1 [Example 767, (R)-2-amino-5-(1-methyl-1H-pyrazol-4-yl)-N-(1-(6-((1-methylpiperidin-4-yl)methoxy)-2-naphthoyl)pyrrolidin-3-yl)nicotinamide] |
| > 1000 nM | 100 to 1000 nM | Cn1cc(-c2cnc(N)c(C(=O)N[C@@H]3CCN(C(=O)c4ccc(OCc5ccc([N+](=O)[O-])cc5)cc4)C3)c2)cn1 [Example 769, (R)-2-amino-5-(1-methyl-1H-pyrazol-4-yl)-N-(1-(4-((4-nitrobenzyl)oxy)benzoyl)pyrrolidin-3-yl)nicotinamide] |
| > 1000 nM | 100 to 1000 nM | Cn1cc(-c2cnc(N)c(C(=O)N[C@@H]3CCN(C(=O)c4ccc(OCc5cccc([N+](=O)[O-])c5)cc4)C3)c2)cn1 [Example 770, (R)-2-amino-5-(1-methyl-1H-pyrazol-4-yl)-N-(1-(4-((3-nitrobenzyl)oxy)benzoyl)pyrrolidin-3-yl)nicotinamide] |
| > 1000 nM | > 1000 nM | NC(=O)c1ccccc1-c1cnc(N)c(C(=O)N[C@@H]2CCN(C(=O)c3ccc(-c4ccc(F)cc4Cl)cc3)C2)c1 [Example 776, (R)-2-amino-5-(2-carbamoylphenyl)-N-(1-(2′-chloro-4′-fluoro-[1,1′-biphenyl]-4-carbonyl)pyrrolidin-3-yl)nicotinamide] |
| > 1000 nM | 10 to 100 nM | Nc1ncc(-c2ccc(C(=O)N3CCOCC3)c(Cl)c2)cc1C(=O)N[C@@H]1CCN(C(=O)c2ccc(-c3ccc(F)cc3Cl)cc2)C1 [Example 781, (R)-2-amino-N-(1-(2′-chloro-4′-fluoro-[1,1′-biphenyl]-4-carbonyl)pyrrolidin-3-yl)-5-(3-chloro-4-(morpholine-4-carbonyl)phenyl)nicotinamide] |
| > 1000 nM | > 1000 nM | Cn1cc(-c2cnc(N)c(C(=O)N[C@@H]3CCN(C(=O)c4ccc5cc(C(=O)N6CCN(CCO)CC6)ccc5c4)C3)c2)cn1 [Example 786, (R)-2-amino-N-(1-(6-(4-(2-hydroxyethyl)piperazine-1-carbonyl)-2-naphthoyl)pyrrolidin-3-yl)-5-(1-methyl-1H-pyrazol-4-yl)nicotinamide] |
| > 1000 nM | 10 to 100 nM | CN1CCN(Cc2ccc(-c3ccc(C(=O)N4CC[C@@H](Nc5n[nH]c6ncc(-c7cnn(C)c7)cc56)C4)cc3)cc2)CC1 [Example 794, (R)-(3-((5-(1-methyl-1H-pyrazol-4-yl)-1H-pyrazolo[3,4-b]pyridin-3-yl)amino)pyrrolidin-1-yl)(4′-((4-methylpiperazin-1-yl)methyl)-[1,1′-biphenyl]-4-yl)methanone] |
| 500 to 1000 nM | 10 to 100 nM | Cn1cc(-c2cnc(N)c(C(=O)N[C@@H]3CCN(C(=O)c4ccc(-c5ccc(Oc6ccnc(Cl)c6)cc5)cc4)C3)c2)cn1 [Example 795, (R)-2-amino-N-(1-(4′-((2-chloropyridin-4-yl)oxy)-[1,1′-biphenyl]-4-carbonyl)pyrrolidin-3-yl)-5-(1-methyl-1H-pyrazol-4-yl)nicotinamide] |
| > 1000 nM | 10 to 100 nM | Cn1cc(-c2cnc(N)c(C(=O)N[C@@H]3CCN(C(=O)c4ccc(-c5ccc(Oc6ccncc6)cc5)cc4)C3)c2)cn1 [Example 798, (R)-2-amino-5-(1-methyl-1H-pyrazol-4-yl)-N-(1-(4′-(pyridin-4-yloxy)-[1,1′-biphenyl]-4-carbonyl)pyrrolidin-3-yl)nicotinamide] |
| > 1000 nM | 100 to 1000 nM | CN(c1ccc(-c2ccc(C(=O)N3CC[C@@H](NC(=O)c4cc(-c5cnn(C)c5)cnc4N)C3)cc2)cc1)c1ccc([N+](=O)[O-])cc1 [Example 803, (R)-2-amino-N-(1-(4′-(methyl(4-nitrophenyl)amino)-[1,1′-biphenyl]-4-carbonyl)pyrrolidin-3-yl)-5-(1-methyl-1H-pyrazol-4-yl)nicotinamide] |
| > 1000 nM | > 1000 nM | CN(c1ccc(-c2ccc(C(=O)N3CC[C@@H](NC(=O)c4cc(-c5cnn(C)c5)cnc4N)C3)cc2)cc1)c1ccc([N+](=O)[O-])cc1Cl [Example 806, (R)-2-amino-N-(1-(4′-((2-chloro-4-nitrophenyl)(methyl)amino)-[1,1′-biphenyl]-4-carbonyl)pyrrolidin-3-yl)-5-(1-methyl-1H-pyrazol-4-yl)nicotinamide] |
